# Tested on: Plasmodium falciparum
# Test: Antimalarial activity against Plasmodium falciparum
# Assay type: functional
row,Structure (SMILES),logIC50
1,COc1ccc(C2(OC)C=CC(C3CCCCC3)(C3CCCCC3)OC2)cc1 (centres undefined),2.255
2,COc1ccc(C2(OC)C=CC(C3CCCCCC3)(C3CCCCCC3)OC2)cc1 (centres undefined),2.322
3,COc1cc(C2(OC)C=CC(C3CCCCCC3)(C3CCCCCC3)OC2)cc(OC)c1OC (centres undefined),2.079
4,COC1(c2ccc(OC(F)(F)F)cc2)C=CC(C2CCCCCC2)(C2CCCCCC2)OC1 (centres undefined),1.785
5,COC1(c2ccc(Cl)cc2)C=CC(C2CCCCCC2)(C2CCCCCC2)OC1 (centres undefined),1.763
6,COC1(c2ccc(F)cc2)C=CC(C2CCCCCC2)(C2CCCCCC2)OC1 (centres undefined),1.929
7,COC1(c2ccc(SC)cc2)C=CC(C2CCCCCC2)(C2CCCCCC2)OC1 (centres undefined),1.892
8,COC1(c2ccc(S(C)(=O)=O)cc2)C=CC(C2CCCCCC2)(C2CCCCCC2)OC1 (centres undefined),1.491
9,CCc1ccc(C2(OC)C=CC(C3CCCCCC3)(C3CCCCCC3)OC2)cc1 (centres undefined),2.255
10,COC1(c2ccc(SC)cc2)C=CC(C2CCCCC2)(C2CCCCC2)OC1 (centres undefined),2.204
11,COC1(c2ccc(S(C)(=O)=O)cc2)C=CC(C2CCCCC2)(C2CCCCC2)OC1 (centres undefined),1.748
12,COC1(c2ccc([N+](=O)[O-])cc2)C=CC(C2CCCCC2)(C2CCCCC2)OC1 (centres undefined),1.663
13,COC1(c2ccc(Cl)cc2)C=CC(C2CCCCC2)(C2CCCCC2)OC1 (centres undefined),2
14,COC1(c2ccc(F)cc2)C=CC(C2CCCCC2)(C2CCCCC2)OC1 (centres undefined),2.301
15,COC1(c2ccc(C(F)(F)F)cc2)C=CC(C2CCCCC2)(C2CCCCC2)OC1 (centres undefined),2.146
16,COC1(c2ccccc2)C=CC(C)(C)OC1 (centres undefined),3.041
17,COC1(c2ccccc2)C=CC(C2CCCC2)(C2CCCC2)OC1 (centres undefined),2.279
18,COC1(c2ccccc2)C=CC(C2CCCCC2)(C2CCCCC2)OC1 (centres undefined),2.447
19,COC1(c2ccccc2)C=CC(C2CCCCCC2)(C2CCCCCC2)OC1 (centres undefined),2.342

# Source: ChEMBL document CHEMBL3045536, “Prediction of antimalarial activity of some cyclic peroxy ketals using physico-chemical and topological indices” (2012)
